Assays:
giant foxtail = assay: Test B pre/postemergence giant foxtail; assay type: in vivo, Setaria faberii; conditions: for Giant foxtail plant response rating: scale of 0 to 10 where 0 is no effect and 10 is complete control
Method in brief: (§1)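 Herbicidal effect was estimated by eye on a ten-point control scale after plants spent twelve to sixteen days in a greenhouse following soil or foliar treatment. Foliar sprays targeted plants at one to four leaves; all doses were formulated in a non-phytotoxic solvent with surfactant.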

morningglory = assay: Test B pre/postemergence morningglory; assay type: in vivo, Ipomoea hederacea; conditions: for Morningglory plant response rating: scale of 0 to 10 where 0 is no effect and 10 is complete control
Method in brief: as §1

blackgrass = assay: Test B pre/postemergence blackgrass; assay type: in vivo, Alopecurus myosuroides; conditions: for Blackgrass plant response rating: scale of 0 to 10 where 0 is no effect and 10 is complete control
Method in brief: as §1

purple nutsedge = assay: Test B pre/postemergence purple nutsedge; assay type: in vivo, Cyperus rotundus; conditions: for Nutsedge plant response rating: scale of 0 to 10 where 0 is no effect and 10 is complete control
Method in brief: as §1

rice = assay: Test B flood test rice; assay type: in vivo, Oryza sativa
Method in brief: (§2)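 Read-out is a visual response score from 0 (no effect) to 10 (complete control), assigned by comparison with untreated controls. Treatment was applied at the 2-leaf stage, and plants stayed in the greenhouse for twelve to sixteen days before scoring.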

bamyardgrass = assay: Test B flood test barnyardgrass; assay type: in vivo, Echinochloa crus-galli
Method in brief: as §2

pigweed = assay: Test B pre/postemergence pigweed; assay type: in vivo, Amaranthus retroflexus; conditions: for Redroot pigweed plant response rating: scale of 0 to 10 where 0 is no effect and 10 is complete control
Method in brief: as §1

crabgrass = assay: Test B pre/postemergence crabgrass; assay type: in vivo, Digitaria sanguinalis; conditions: for Crabgrass plant response rating: scale of 0 to 10 where 0 is no effect and 10 is complete control
Method in brief: as §1

sugar beet = assay: Test B pre/postemergence sugar beet; assay type: in vivo, Beta vulgaris; conditions: for Sugarbeets plant response rating: scale of 0 to 10 where 0 is no effect and 10 is complete control
Method in brief: as §1

corn = assay: Test B pre/postemergence corn; assay type: in vivo, Zea mays; conditions: for Corn plant response rating: scale of 0 to 10 where 0 is no effect and 10 is complete control
Method in brief: as §1

smallflower flatsedge = assay: Test B flood test smallflower flatsedge; assay type: in vivo, Cyperus difformis
Method in brief: as §2

rape = assay: Test B pre/postemergence rape; assay type: in vivo, Brassica napus; conditions: for Rape plant response rating: scale of 0 to 10 where 0 is no effect and 10 is complete control
Method in brief: as §1

wild oat = assay: Test B pre/postemergence wild oat; assay type: in vivo, Avena fatua; conditions: for Wild oats plant response rating: scale of 0 to 10 where 0 is no effect and 10 is complete control
Method in brief: as §1

wheat = assay: Test B pre/postemergence wheat; assay type: in vivo, Triticum aestivum; conditions: for Wheat plant response rating: scale of 0 to 10 where 0 is no effect and 10 is complete control
Method in brief: as §1

surinam grass = assay: Test B pre/postemergence surinam grass; assay type: in vivo, Brachiaria decumbens; conditions: for B. signalgrass plant response rating: scale of 0 to 10 where 0 is no effect and 10 is complete control
Method in brief: as §1

[1] = Postemergence, Rate 125 g/ha, scale 0 to 10, 0 is no effect, 10 is complete control
[2] = Postemergence, Rate 250 g/ha, scale 0 to 10, 0 is no effect, 10 is complete control
[3] = Preemergence, Rate 62 g/ha, scale 0 to 10 (0 no effect, 10 complete control)
[4] = Rate 500 g/ha, Postemergence, scale 0 to 10, 0 no effect, 10 complete control
[5] = Rate 62 g/ha, flood test species, Pre-emergence, visual evaluation after twelve to sixteen days
[6] = Rate 125 g/ha, under heading Pre-emergence, flood test species, visual evaluation after twelve to sixteen days
[7] = Rate 250 g/ha, Pre-emergence, flood-test species, scale 0 to 10, 0 is no effect, 10 is complete control
[8] = Rate 500 g/ha, Pre-emergence, flood test species, scale 0 to 10 (0 no effect, 10 complete control)

For `Cc1nnsc1Cn1c(=O)on(C(=O)N(c2ccc(F)cc2)C(C)C)c1=O` [Compound 380], the “Plant response rating, Giant foxtail” value (giant foxtail; [1]) was 2, the “Plant response rating, Giant foxtail” value (giant foxtail; [2]) was 9 and the “Plant response rating, Giant foxtail” value (giant foxtail; [3]) was 2. The “Giant foxtail plant response rating (0 to 10 scale)” value (giant foxtail; Preemergence, Rate 125 g/ha) was 8, the “Giant foxtail plant response rating” value (giant foxtail; Preemergence, Rate 250 g/ha) was 9 and the “Giant foxtail plant response rating” value (giant foxtail; Preemergence, Rate 500 g/ha) was 10. For the same compound, the “Giant foxtail plant response rating” value (giant foxtail; Rate 62 g/ha, Postemergence) was 1, the “Plant response rating, Giant foxtail” value (giant foxtail; [4]) was 9 and the “Plant response rating, Morningglory” value (morningglory; [1]) was 5. For the same compound, the “Plant response rating, Morningglory” value (morningglory; [2]) was 5, the “Plant response rating, Morningglory” value (morningglory; [3]) was 0 and the “Morningglory plant response rating (0 to 10 scale)” value (morningglory; Preemergence, Rate 125 g/ha) was 0. For the same compound, the “Morningglory plant response rating” value (morningglory; Preemergence, Rate 250 g/ha) was 0, the “Morningglory plant response rating” value (morningglory; Preemergence, Rate 500 g/ha) was 0 and the “Morningglory plant response rating” value (morningglory; Rate 62 g/ha, Postemergence) was 5. For the same compound, the “Plant response rating, Morningglory” value (morningglory; [4]) was 10, the “Plant response rating, Blackgrass” value (blackgrass; [1]) was 0 and the “Plant response rating, Blackgrass” value (blackgrass; [2]) was 0. For the same compound, the “Plant response rating, Blackgrass” value (blackgrass; [3]) was 0, the “Blackgrass plant response rating (0 to 10 scale)” value (blackgrass; Preemergence, Rate 125 g/ha) was 0 and the “Blackgrass plant response rating” value (blackgrass; Preemergence, Rate 250 g/ha) was 0. The “Blackgrass plant response rating” value (blackgrass; Preemergence, Rate 500 g/ha) was 2, the “Blackgrass plant response rating” value (blackgrass; Rate 62 g/ha, Postemergence) was 0 and the “Plant response rating, Blackgrass” value (blackgrass; [4]) was 0. For the same compound, the “Plant response rating, Nutsedge” value (purple nutsedge; [1]) was 0, the “Plant response rating, Nutsedge” value (purple nutsedge; [2]) was 0 and the “Plant response rating, Nutsedge” value (purple nutsedge; [3]) was 0. For the same compound, the “Nutsedge plant response rating (0 to 10 scale)” value (purple nutsedge; Preemergence, Rate 125 g/ha) was 0, the “Nutsedge plant response rating” value (purple nutsedge; Preemergence, Rate 250 g/ha) was 0 and the “Nutsedge plant response rating” value (purple nutsedge; Preemergence, Rate 500 g/ha) was 0. For the same compound, the “Nutsedge plant response rating” value (purple nutsedge; Rate 62 g/ha, Postemergence) was 0, the “Plant response rating, Nutsedge” value (purple nutsedge; [4]) was 0 and the “Plant response rating, Rice (0 to 10 scale, 0 is no effect, 10 is complete control)” value (rice; [5]) was 0. For the same compound, the “Rice plant response rating (0 to 10 scale, 0 is no effect, 10 is complete control)” value (rice; [6]) was 0, the “Rice plant response rating” value (rice; [7]) was 0 and the “Rice plant response rating” value (rice; [8]) was 0. The “Plant response rating, Barnyardgrass (0 to 10 scale, 0 is no effect, 10 is complete control)” value (bamyardgrass; [5]) was 0, the “Barnyardgrass plant response rating (0 to 10 scale, 0 is no effect, 10 is complete control)” value (bamyardgrass; [6]) was 0 and the “Barnyardgrass plant response rating” value (bamyardgrass; [7]) was 0. For the same compound, the “Barnyardgrass plant response rating” value (bamyardgrass; [8]) was 0, the “Plant response rating, Redroot pigweed” value (pigweed; [1]) was 0 and the “Plant response rating, Redroot pigweed” value (pigweed; [2]) was 0. The “Plant response rating, Redroot pigweed” value (pigweed; [3]) was 0, the “Redroot pigweed plant response rating (0 to 10 scale)” value (pigweed; Preemergence, Rate 125 g/ha) was 3 and the “Redroot pigweed plant response rating” value (pigweed; Preemergence, Rate 250 g/ha) was 3. The “Redroot pigweed plant response rating” value (pigweed; Preemergence, Rate 500 g/ha) was 6, the “Redroot pigweed plant response rating” value (pigweed; Rate 62 g/ha, Postemergence) was 0 and the “Plant response rating, Redroot pigweed” value (pigweed; [4]) was 5. For the same compound, the “Plant response rating, Crabgrass” value (crabgrass; [1]) was 1, the “Plant response rating, Crabgrass” value (crabgrass; [2]) was 2 and the “Plant response rating, Crabgrass” value (crabgrass; [3]) was 1. The “Crabgrass plant response rating (0 to 10 scale)” value (crabgrass; Preemergence, Rate 125 g/ha) was 7, the “Crabgrass plant response rating” value (crabgrass; Preemergence, Rate 250 g/ha) was 7 and the “Crabgrass plant response rating” value (crabgrass; Preemergence, Rate 500 g/ha) was 9. For the same compound, the “Crabgrass plant response rating” value (crabgrass; Rate 62 g/ha, Postemergence) was 0, the “Plant response rating, Crabgrass” value (crabgrass; [4]) was 7 and the “Plant response rating, Sugarbeets” value (sugar beet; [1]) was 0. The “Plant response rating, Sugarbeets” value (sugar beet; [2]) was 0, the “Plant response rating, Sugarbeets” value (sugar beet; [3]) was 0 and the “Sugarbeets plant response rating (0 to 10 scale)” value (sugar beet; Preemergence, Rate 125 g/ha) was 0. The “Sugarbeets plant response rating” value (sugar beet; Preemergence, Rate 250 g/ha) was 0, the “Sugarbeets plant response rating” value (sugar beet; Preemergence, Rate 500 g/ha) was 0 and the “Sugarbeets plant response rating” value (sugar beet; Rate 62 g/ha, Postemergence) was 0. The “Plant response rating, Sugarbeets” value (sugar beet; [4]) was 0, the “Plant response rating, Corn” value (corn; [1]) was 0 and the “Plant response rating, Corn” value (corn; [2]) was 0. For the same compound, the “Plant response rating, Corn” value (corn; [3]) was 0, the “Corn plant response rating (0 to 10 scale)” value (corn; Preemergence, Rate 125 g/ha) was 0 and the “Corn plant response rating” value (corn; Preemergence, Rate 250 g/ha) was 0. The “Corn plant response rating” value (corn; Preemergence, Rate 500 g/ha) was 0, the “Corn plant response rating” value (corn; Rate 62 g/ha, Postemergence) was 0 and the “Plant response rating, Corn” value (corn; [4]) was 0. For the same compound, the “Plant response rating, S. Flatsedge (0 to 10 scale, 0 is no effect, 10 is complete control)” value (smallflower flatsedge; [5]) was 0, the “S. Flatsedge plant response rating (0 to 10 scale, 0 is no effect, 10 is complete control)” value (smallflower flatsedge; [6]) was 0 and the “S. Flatsedge plant response rating” value (smallflower flatsedge; [7]) was 0. The “S. Flatsedge plant response rating” value (smallflower flatsedge; [8]) was 0, the “Plant response rating, Rape” value (rape; [1]) was 0 and the “Plant response rating, Rape” value (rape; [2]) was 0. For the same compound, the “Plant response rating, Rape” value (rape; [3]) was 0, the “Rape plant response rating (0 to 10 scale)” value (rape; Preemergence, Rate 125 g/ha) was 0 and the “Rape plant response rating” value (rape; Preemergence, Rate 250 g/ha) was 0. The “Rape plant response rating” value (rape; Preemergence, Rate 500 g/ha) was 0, the “Rape plant response rating” value (rape; Rate 62 g/ha, Postemergence) was 0 and the “Plant response rating, Rape” value (rape; [4]) was 0. For the same compound, the “Plant response rating, Wild oats” value (wild oat; [1]) was 0, the “Plant response rating, Wild oats” value (wild oat; [2]) was 0 and the “Plant response rating, Wild oats” value (wild oat; [3]) was 0. For the same compound, the “Wild oats plant response rating (0 to 10 scale)” value (wild oat; Preemergence, Rate 125 g/ha) was 0, the “Wild oats plant response rating” value (wild oat; Preemergence, Rate 250 g/ha) was 0 and the “Wild oats plant response rating” value (wild oat; Preemergence, Rate 500 g/ha) was 4. The “Wild oats plant response rating” value (wild oat; Rate 62 g/ha, Postemergence) was 0, the “Plant response rating, Wild oats” value (wild oat; [4]) was 0 and the “Plant response rating, Wheat” value (wheat; [1]) was 0. The “Plant response rating, Wheat” value (wheat; [2]) was 0, the “Plant response rating, Wheat” value (wheat; [3]) was 0 and the “Wheat plant response rating (0 to 10 scale)” value (wheat; Preemergence, Rate 125 g/ha) was 0. For the same compound, the “Wheat plant response rating” value (wheat; Preemergence, Rate 250 g/ha) was 0, the “Wheat plant response rating” value (wheat; Preemergence, Rate 500 g/ha) was 0 and the “Wheat plant response rating” value (wheat; Rate 62 g/ha, Postemergence) was 0. For the same compound, the “Plant response rating, Wheat” value (wheat; [4]) was 0, the “Plant response rating, B. signalgrass” value (surinam grass; [1]) was 0 and the “Plant response rating, B. signalgrass” value (surinam grass; [2]) was 0. The “Plant response rating, B. signalgrass” value (surinam grass; [3]) was 0, the “B. signalgrass plant response rating (0 to 10 scale, 0 is no effect, 10 is complete control)” value (surinam grass; Preemergence, Rate 125 g/ha) was 0 and the “B. signalgrass plant response rating” value (surinam grass; Preemergence, Rate 250 g/ha) was 0. For the same compound, the “B. signalgrass plant response rating” value (surinam grass; Preemergence, Rate 500 g/ha) was 0, the “B. signalgrass plant response rating” value (surinam grass; Rate 62 g/ha, Postemergence) was 0 and the “Plant response rating, B. signalgrass” value (surinam grass; [4]) was 0.

From patent US6737383B1, “Herbicidal oxadiazolidines” (priority 1999, dated 2004)
